In patent US20050100617A1, “Method for improving age-related physiological deficits and increasing longevity” (priority 2001, published 2005):

System: skeletal muscle (gastrocnemius) gene expression
Assay: Gene expression profiling in skeletal muscle, short-term (3 months) dietary intervention in young mice
Type: in vivo
Settings: 3 months treatment
Method: For each target gene, the fold change is calculated as follows: [Expression obtained with the experimental diet] divided by [Expression obtained with control diet]. Consequently, fold changes of all target genes are equal to 1 (one) for the control diet. Thus, fold changes refers to the modulation of expression of a given target gene in muscle tissue after 3 months feeding with an experimental diet, for example, diets B, C, D, or F, when compared to the expression of the same gene in muscle tissue of the control group (diet A).
Dietary intervention was of 3 months, all animal groups were fed Ad libitum except for the group of caloric restricted mice which as fed 67% of the daily food consumed by the control Ad libitum group. Animal weight was measured once a week.
The effect of short and long nutritional intervention was investigated. The short-term dietary interventions with diet A, B, C, D and F was initiated in young mice and lasted for three months. In a similar way, long-term interventions were initiated at three months of age for the following diets A and B and D and lasted twenty-one months.
Male mice C57/B16 were obtained from Iffa credo (France) at 9 weeks of age. Upon arrival mice were housed by groups of 6 animals. After 3 weeks adaptation, mice (12 weeks old) were randomized 6 groups (A to F) of 12 mice each and housed individually. Dietary intervention was of 3 months; mice had free access to water and were submitted to 12 hours light and dark cycles.
The control diet (diet A) composed of 18% proteins (soy and whey), 11% fat (soybean oil), 59% carbohydrates (starch+sucrose) and 10% cellulose was supplemented with either a cocktail of antioxidants comprising vitamin C, vitamin E, grape seed extract and cysteine (diet C) and/or L-camitine (diet D and F respectively). For caloric restriction (diet B) fat, starch and sucrose were reduced to provide 67% of the daily calorie consumption of the Ad-lib control group while providing 100% for proteins, minerals and vitamins. These diets are as follows: • Diet A—Control: 18% proteins (soy and whey), 11% fat, 59% carbohydrates, 5% cellulose. • Diet B—Caloric restriction: 18% proteins (soy and whey), 7.7% fat, 32.5% carbohydrates, 5% cellulose • Diet C—Cocktail of antioxidants : Diet A+0.19% vit C, 0.03% vit E, 0.075% grape seed extract, 0.4% cysteine. • Diet D: Carnitine and Antioxidants: Diet A+0.3% L- camitine+cocktail of antioxidants of diet C. • Diet F: Carnitine: Diet A+0.3% L- carnitine
Mice were decapitated and dissected rapidly. Skeletal muscles (gastrocnemius) were immersed in RNAlatter (Ambion) and frozen at −80° C. until use. For RNA extraction, muscles were homogenized with ceramic beads (FastPrep, Q-Biogene) and the RNA extracted with Totally RNA kit (Ambion). The quality of the RNA was checked by Agilent technology. RNA pools from four mice each were created and hybridized to Affymetrix Murine U74Av2 high-density oligonucleotide microarrays.
The Global Error Assessment (GEA) methodology was used to select differentially expressed genes in the present invention. See Bioinformatics, Vol. 20, No. 16 (Oxford University Press 2004) pp. 2726-2737, the content of which is hereby incorporated by reference thereto. The goal was to select genes with statistically significant differential expression between treatments and ages of the mice of the study.

C[N+](C)(C)C[C@H](O)CC(=O)[O-] [Carnitine, L-carnitine]
Fold Changes 0610013E23Rik (RIKEN cDNA 0610013E23 gene): 0.6 fold
Fold Changes 2010012F05Rik (RIKEN cDNA 2010012F05 gene): 0.8 fold
Fold Changes 2210419D22Rik (RIKEN cDNA 2210419D22 gene): 0.8 fold
Fold Changes 2310016A09Rik (RIKEN cDNA 2310016A09 gene): 0.7 fold
Fold Changes 2310073E15Rik (RIKEN cDNA 2310073E15 gene): 1.2 fold
Fold Changes 2610034N03Rik (RIKEN cDNA 2610034N03 gene): 0.5 fold
Fold Changes 2700059D21Rik (RIKEN cDNA 2700059D21 gene): 0.5 fold
Fold Changes 3110038L01Rik (RIKEN cDNA 3110038L01 gene): 1.4 fold
Fold Changes 4732477C12Rik (RIKEN cDNA 4732477C12 gene): 1.2 fold
Fold Changes 5730454B08Rik (RIKEN cDNA 5730454B08 gene): 0.8 fold
Fold Changes 5730497N03Rik (RIKEN cDNA 5730497N03 gene): 0.2 fold
Fold Changes 6330407G11Rik (RIKEN cDNA 6330407G11 gene): 0.6 fold
Fold Changes 6720463E02Rik (RIKEN cDNA 6720463E02 gene): 1.3 fold
Fold Changes Actb (actin, beta, cytoplasmic): 1.4 fold
Fold Changes Akt1s1 (AKT1 substrate 1 (proline-rich)): 1.4 fold
Fold Changes Aldh2 (aldehyde dehydrogenase 2, mitochondrial): 1.7 fold
Fold Changes Anp32e (acidic (leucine-rich) nuclear phosphoprotein 32 family, member E): 0.6 fold
Fold Changes Apobec2 (apolipoprotein B editing complex 2): 0.5 fold
Fold Changes Arid1a (AT rich interactive domain 1A (Swi1 like)): 0.6 fold
Fold Changes Arpc2 (actin related protein 2/3 complex, subunit 2): 0.6 fold
Fold Changes Atp1b2 (ATPase, Na+/K+ transporting, beta 2 polypeptide): 4.1 fold
Fold Changes Atp13a (ATPase type 13A): 0.7 fold
Fold Changes Birc4 (baculoviral IAP repeat-containing 4): 5.9 fold
Fold Changes C4 (complement component 4 (within H-2S)): 0.6 fold
Fold Changes Camk2a (calcium/calmodulin-dependent protein kinase II alpha): 4.6 fold
Fold Changes Capza2 (capping protein (actin filament) muscle Z-line, alpha 2): 0.7 fold
Fold Changes Capzb (capping protein (actin filament) muscle Z-line, beta): 0.6 fold
Fold Changes Car4 (carbonic anhydrase 4): 2.3 fold
Fold Changes Cbfb (core binding factor beta): 0.7 fold
Fold Changes Ccl9 (chemokine (C-C motif) ligand 9): 0.5 fold
Fold Changes Cd97 (CD97 antigen): 5.4 fold
Fold Changes Cd164 (CD164 antigen): 0.8 fold
Fold Changes Cdh10 (cadherin 10): 0.4 fold
Fold Changes Cebpd (CCAAT/enhancer binding protein (C/EBP), delta): 0.5 fold
Fold Changes Copb2 (coatomer protein complex, subunit beta 2 (beta prime)): 0.7 fold
Fold Changes Cpd (carboxypeptidase D): 1.9 fold
Fold Changes D8Ertd69e (DNA segment, Chr 8, ERATO Doi 69, expressed): 1.2 fold
Fold Changes D19Ertd678e (DNA segment, Chr 19, ERATO Doi 678, expressed): 5.2 fold
Fold Changes Ddb1 (damage specific DNA binding protein 1): 0.7 fold
Fold Changes Deb1 (differentially expressed in B16F10 1): 0.8 fold
Fold Changes Dyrk1a (dual-specificity tyrosine-(Y)-phosphorylation regulated kinase 1a): 1.8 fold
Fold Changes E030006K04Rik (RIKEN cDNA E030006K04 gene): 2.9 fold
Fold Changes Eif2s3x (eukaryotic translation initiation factor 2, subunit 3, structural gene X-linked): 0.7 fold
Fold Changes Eif4ebp1 (eukaryotic translation initiation factor 4E binding protein 1): 0.6 fold
Fold Changes Eif4ebp2 (eukaryotic translation initiation factor 4E binding protein 2): 0.6 fold
Fold Changes Enpep (glutamyl aminopeptidase): 0.6 fold
Fold Changes Eps15 (epidermal growth factor receptor pathway substrate 15): 0.7 fold
Fold Changes Erv4 (endogenous retroviral sequence 4 (with leucine t-RNA primer)): 5.2 fold
Fold Changes Esr1 (estrogen receptor 1 (alpha)): 6.5 fold
Fold Changes Fcgr2b (Fc receptor, IgG, low affinity Ilb): 0.1 fold
Fold Changes G0s2 (G0/G1 switch gene 2): 1.5 fold
Fold Changes Galnt1 (UDP-N-acetyl-alpha-D-galactosamine:polypeptide N-acetylgalactosaminyltra): 0.5 fold
Fold Changes Gas5 (growth arrest specific 5): 0.6 fold
Fold Changes Gpr12 (G-protein coupled receptor 12): 0.7 fold
Fold Changes Gpx7 (glutathione peroxidase 7): 0.3 fold
Fold Changes Gstm5 (glutathione S-transferase, mu 5): 0.6 fold
Fold Changes Hbb-b1 (hemoglobin, beta adult major chain): 1.2 fold
Fold Changes Hdac2 (histone deacetylase 2): 0.8 fold
Fold Changes Hist2h3c2 (histone 2, H3c2): 1.5 fold
Fold Changes Hmgcl (3-hydroxy-3-methylglutaryl-Coenzyme A lyase): 0.5 fold
Fold Changes Hoxd8 (homeo box D8): 0.6 fold
Fold Changes Htr1a (5-hydroxytryptamine (serotonin) receptor 1A): 4.2 fold
Fold Changes Igfbp5 (insulin-like growth factor binding protein 5): 0.6 fold
Fold Changes Itgb1 (integrin beta 1 (fibronectin receptor beta)): 0.7 fold
Fold Changes Itpr1 (inositol 1,4,5-triphosphate receptor 1): 0.4 fold
Fold Changes Junb (Jun-B oncogene): 0.4 fold
Fold Changes Klf3 (Kruppel-like factor 3 (basic)): 5.9 fold
Fold Changes Klrb1c (killer cell lectin-like receptor subfamily B member 1C): 0.2 fold
Fold Changes Krtap3-1 (keratin associated protein 3-1): 0.7 fold
Fold Changes Ksr (kinase suppressor of ras): 1.8 fold
Fold Changes Lbp (lipopolysaccharide binding protein): 0.6 fold
Fold Changes Ldh2 (lactate dehydrogenase 2, B chain): 1.6 fold
Fold Changes Lpl (lipoprotein lipase): 1.4 fold
Fold Changes Lypla1 (lysophospholipase 1): 4.8 fold
Fold Changes Macf1 (microtubule-actin crosslinking factor 1): 0.5 fold
Fold Changes Mapk9 (mitogen activated protein kinase 9): 2.8 fold
Fold Changes Mapre3 (microtubule-associated protein, RP/EB family, member 3): 0.4 fold
Fold Changes Mapt (microtubule-associated protein tau): 0.5 fold
Fold Changes Matr3 (matrin 3): 0.6 fold
Fold Changes Mnt (max binding protein): 0.6 fold
Fold Changes Mt1 (metallothionein 1): 0.5 fold
Fold Changes Mt2 (metallothionein 2): 0.3 fold
Fold Changes Muc1 (mucin 1, transmembrane): 0.5 fold
Fold Changes Myo5a (myosin Va): 0.1 fold
Fold Changes Ndufb3 (NADH dehydrogenase (ubiquinone) 1 beta subcomplex 3): 1.2 fold
Fold Changes Neurod6 (neurogenic differentiation 6): 0.1 fold
Fold Changes Nnt (nicotinamide nucleotide transhydrogenase): 1.7 fold
Fold Changes Npc1 (Niemann Pick type C1): 0.6 fold
Fold Changes Nras (neuroblastoma ras oncogene): 0.6 fold
Fold Changes Orc4l (origin recognition complex, subunit 4-like (S. cerevisiae)): 0.6 fold
Fold Changes Pcdha12 (protocadherin alpha 12): 0.4 fold
Fold Changes Pcnt2 (pericentrin 2): 1.6 fold
Fold Changes Pdcd4 (programmed cell death 4): 0.6 fold
Fold Changes Pdk4 (pyruvate dehydrogenase kinase, isoenzyme 4): 0.9 fold
Fold Changes Pigr (polymeric immunoglobulin receptor): 0.7 fold
Fold Changes Pkm2 (pyruvate kinase, muscle): 0.5 fold
Fold Changes Plk1 (polo-like kinase 1 (Drosophila)): 0.3 fold
Fold Changes Prp19 (PRP19/PSO4 homolog (S. cerevisiae)): 0.5 fold
Fold Changes Psap (prosaposin): 17.3 fold
Fold Changes Psma3 (proteasome (prosome, macropain) subunit, alpha type 3): 0.7 fold
Fold Changes Psmc1 (protease (prosome, macropain) 26S subunit, ATPase 1): 0.5 fold
Fold Changes Psmd8 (proteasome (prosome, macropain) 26S subunit, non-ATPase, 8): 0.7 fold
Fold Changes Psmd11 (proteasome (prosome, macropain) 26S subunit, non-ATPase, 11): 0.6 fold
Fold Changes Rab2 (RAB2, member RAS oncogene family): 0.9 fold
Fold Changes Rbm17 (RNA binding motif protein 17): 0.7 fold
Fold Changes Retn (resistin): 1.9 fold
Fold Changes Rhoa (ras homolog gene family, member A): 1.4 fold
Fold Changes Rpl30 (ribosomal protein L30): 0.7 fold
Fold Changes Rpp14 (ribonuclease P 14 kDa subunit (human)): 0.7 fold
Fold Changes Rrad (Ras-related associated with diabetes): 0.5 fold
Fold Changes Rtn4 (reticulon 4): 0.9 fold
Fold Changes Rwdd1 (RWD domain containing 1): 0.6 fold
Fold Changes Sara2 (SAR1a gene homolog 2 (S. cerevisiae)): 0.8 fold
Fold Changes Scamp2 (secretory carrier membrane protein 2): 0.7 fold
Fold Changes Sgk (serum/glucocorticoid regulated kinase): 0.8 fold
Fold Changes Siat6 (sialyltransferase 6 (N-acetyllacosaminide alpha 2,3-sialyltransferase)): 2 fold
Fold Changes Skp1a (S-phase kinase-associated protein 1A): 0.5 fold
Fold Changes Slc2a5 (solute carrier family 2 (facilitated glucose transporter), member 5): 0.2 fold
Fold Changes Slc38a2 (solute carrier family 38, member 2): 0.8 fold
Fold Changes Slpi (secretory leukocyte protease inhibitor): 1.1 fold
Fold Changes Snx2 (sorting nexin 2): 1.5 fold
Fold Changes Sorbs1 (sorbin and SH3 domain containing 1): 0.8 fold
Fold Changes Spr (sepiapterin reductase): 1.4 fold
Fold Changes Sri (sorcin): 2.3 fold
Fold Changes St13 (suppression of tumorigenicity 13): 1.5 fold
Fold Changes Stam2 (signal transducing adaptor molecule (SH3 domain and ITAM motif) 2): 4.3 fold
Fold Changes Strap (serine/threonine kinase receptor associated protein): 0.6 fold
Fold Changes Tcfl1 (transcription factor-like 1): 0.7 fold
Fold Changes Tgm3 (transglutaminase 3, E polypeptide): 2.5 fold
Fold Changes Tm4sf3 (transmembrane 4 superfamily member 3): 0.5 fold
Fold Changes Tnpo1 (transportin 1): 0.4 fold
Fold Changes Tnxb (tenascin XB): 1.4 fold
Fold Changes Top1 (topoisomerase (DNA) I): 0.5 fold
Fold Changes Transcribed sequence with strong similarity to protein sp: P49840 (H. sapiens): 0.8 fold
Fold Changes Transcribed sequences: 0.7 fold
Fold Changes Tsta3 (tissue specific transplantation antigen P35B): 0.9 fold
Fold Changes Tubg2 (tubulin, gamma 2): 1.6 fold
Fold Changes Ubb (ubiquitin B): 0.7 fold
Fold Changes Ube2e1 (ubiquitin-conjugating enzyme E2E 1, UBC4/5 homolog (yeast)): 0.7 fold
Fold Changes Upf3b (UPF3 regulator of nonsense transcripts homolog B (yeast)): 0.7 fold
Fold Changes Utrn (utrophin): 1.7 fold
Fold Changes Vps54 (vacuolar protein sorting 54 (yeast)): 0.4 fold
Fold Changes Wars (tryptophanyl-tRNA synthetase): 1.9 fold
Fold Changes Xcl1 (chemokine (C motif) ligand 1): 4.7 fold
Fold Changes Xpo7 (exportin 7): 0.7 fold
Fold Changes Zfp101 (zinc finger protein 101): 0.2 fold
Fold Changes Zfp289 (zinc finger protein 289): 0.6 fold
Fold Changes Rpl10a (ribosomal protein L10A) (Table 1 (down regulation)): 0.4 fold
Fold Changes Itgav (integrin alpha V) (Table 1, first Itgav line): 0.2 fold
Fold Changes Itgav (integrin alpha V) (Table 1, second Itgav line): 0.7 fold
Fold Changes Itgav (integrin alpha V) (Table 2 (up regulation)): 4.6 fold
Fold Changes Rpl10a (ribosomal protein L10A) (Table 2 (up regulation)): 1.2 fold
